This assay relates to mouse long-term hematopoietic stem cells. Description: Reproducibility and concentration dependence test: 1-week culture of sorted Hoxb5-tri-mCherry mouse long-term hematopoietic stem cells, flow cytometry. The assay is classed as cell-based. To be noted: Table 4, day 7 of culture, n=2. Here is the method:
Mice with insertion of a nucleic acid sequence containing three copies of a gene encoding the fluorescent protein mCherry to the C terminus of the mouse endogenous HoxB5 gene (Hoxb5-tri-mCherry) were used (triple-mCherry Hoxb5 knock-in mice; Non Patent Literature 1). The mice were housed under environmental conditions such that the room temperature and the humidity were 20 to 26° C. and 40 to 70%, respectively, under light for 12 hours and under dark for 12 hours (illumination: 8:00 a.m. to 8:00 p.m.).
Bone marrow cells were collected from the tibia, femur, humerus, and pelvis in each side of each of the mice, and gathered in a mortar. A buffer obtained by adding thermally deactivated bovine serum (manufactured by Gibco) at a final concentration of 2% and EDTA at a final concentration of 2 mM to Ca^2+-free and Mg^2+-free PBS was added, and the resultant was broken with a pestle to obtain a cell population including hematopoietic stem cells.
First, the thus-obtained cell population including hematopoietic stem cells was passed through strainers (meshes) of 100 μm, 70 μm, and 40 μm. The cell population was stained with an APC-binding anti-c-Kit (2B8) and fractionated with anti-APC magnetic beads and an LS column (both manufactured by Miltenyi Biotec) to obtain a cell population enriched with hematopoietic stem cells and progenitor cells.
Subsequently, cells being c-Kit-positive were stained with antibodies for the following cell surface markers.
Staining with the antibodies was performed at 4° C., and the cells were incubated for 30 minutes. For staining with the CD34 antibody, the cells were incubated for 90 minutes. Dead cell staining was performed with SYTOX Red Dead Cell Stain (manufactured by Life Technologies) in accordance with a method recommended by the manufacturer.
Flow cytometry analysis and cell classification (cell sorting) were performed with a FACS Aria II cell sorter (manufactured by BD Biosciences), wherein Lineage-negative, c-Kit-positive, Sca-1-positive, Flk2-negative, CD34-negative or weakly CD34-positive, CD150-positive, and mCherry-positive fractions were regarded as long-term hematopoietic stem cells, and analysis was performed with the software FlowJo (manufactured by Tree Star, Inc.).
The cells after classification were seeded in a 96-well plate. A cell culture medium was prepared by adding Stem Cell Factor (SCF, manufactured by PeproTech, Inc.) and Thrombopoietin (TPO, manufactured by PeproTech, Inc.) to StemSpan SFEM culture medium (manufactured by […] Technologies Inc.) and added in advance to a cell culture 96-well plate (manufactured by BD Biosciences) at 100 μL/well, and the cells sorted with the FACS Aria II cell sorter (BD Biosciences) were then seeded at 10 cells/well.
[…] Thereafter, the cells were cultured in a CO2 incubator under conditions of 37° C. and 5% CO2 for 1 week.
After culture, the cells were stained with the antibodies for the surface markers c-Kit and Sca-1, Ter-119, B220, CD3, CD4, CD8a, Gr-1, and CD11b, and the ratio and post-growth cell count of a KLS fraction (c-Kit^+, Lin^−, Sca-1^+) or an mCherry-positive fraction given with use of a FACS Aria II cell sorter were analyzed by using FlowJo (BD Biosciences). The mCherry-positive fraction is a cell fraction expressing the Hoxb5 gene, and the KLS fraction is a cell fraction being c-Kit-positive, Lin-negative, and Sca-1-positive, and includes hematopoietic stem cells and multipotent progenitor cells as main components. […]

Structures are written as SMILES.

`C[C@H]1[C@H](C(=O)O)O[C@@H]2O[C@@]3(C)CC[C@H]4[C@H](C)CC[C@@H]1[C@@]24OO3` [Example 1-8, (3R,5aS,6R,8aS,9R,10R,12R,12aR)-3,6,9-Trimethyldecahydro-12H-3,12-epoxypyrano[4,3-j][1,2]benzodioxepine-10-carboxylic acid]: the KLS-positive rate reads like this: (compound 0.1 μM) 17.3%; (compound 0.3 μM) 18.2%; (compound 1 μM) 28.7%; (compound 3 μM) 37.3%; (compound 10 μM) 20.6%. For the same molecule, the Viable cell count is, setting by setting: (compound 0.1 μM) 396.5 cell; (compound 0.3 μM) 379.5 cell; (compound 1 μM) 248.0 cell; (compound 3 μM) 204.5 cell; (compound 10 μM) 286.5 cell. The mCherry-positive rate by setting is: (compound 0.1 μM) 3.0%; (compound 0.3 μM) 7.7%; (compound 1 μM) 12.0%; (compound 3 μM) 12.9%; (compound 10 μM) 29.0%.
Take `C[C@H]1[C@H](n2cc(-c3ccccc3)nn2)O[C@@H]2O[C@@]3(C)CC[C@H]4[C@H](C)CC[C@@H]1[C@@]24OO3` [Example 1-9, 4-Phenyl-1-[(3R,5aS,6R,8aS,9R,10R,12R,12aR)-3,6,9-trimethyldecahydro-12H-3,12-epoxypyrano[4,3-j][1,2]benzodioxepin-10-yl]-1H-1,2,3-triazole]: the KLS-positive rate by setting is: (compound 0.1 μM) 10.6%; (compound 0.3 μM) 31.1%; (compound 1 μM) 34.3%; (compound 3 μM) 14.1%; (compound 10 μM) 27.1%. Besides, the Viable cell count turned out to be 627.5 cell (compound 0.1 μM); 500.0 cell (compound 0.3 μM); 625.0 cell (compound 1 μM); 479.0 cell (compound 3 μM); 491.5 cell (compound 10 μM). The mCherry-positive rate came to 5.9% (compound 0.1 μM); 4.5% (compound 0.3 μM); 9.4% (compound 1 μM); 8.1% (compound 3 μM); 11.4% (compound 10 μM).
As for `CC(=O)N[C@@H]1O[C@@H]2O[C@@]3(C)CC[C@H]4[C@H](C)CC[C@@H]([C@H]1C)[C@@]24OO3` [Example 1-10, N-[(3R,5aS,6R,8aS,9R,10R,12R,12aR)-3,6,9-Trimethyldecahydro-12H-3,12-epoxypyrano[4,3-j][1,2]benzodioxepin-10-yl]acetamide], the KLS-positive rate was found to be 19.7% (compound 0.1 μM); 23.1% (compound 0.3 μM); 32.9% (compound 1 μM); 33.1% (compound 3 μM); 53.1% (compound 10 μM). In addition, the Viable cell count is, setting by setting: (compound 0.1 μM) 717.5 cell; (compound 0.3 μM) 387.0 cell; (compound 1 μM) 325.5 cell; (compound 3 μM) 579.0 cell; (compound 10 μM) 46.5 cell. Besides, the mCherry-positive rate was 6.5% (compound 0.1 μM); 16.5% (compound 0.3 μM); 9.1% (compound 1 μM); 38.5% (compound 3 μM); 99.3% (compound 10 μM).
For the molecule `C[C@H]1[C@H](NS(C)(=O)=O)O[C@@H]2O[C@@]3(C)CC[C@H]4[C@H](C)CC[C@@H]1[C@@]24OO3` [Example 1-11, N-[(3R,5aS,6R,8aS,9R,10R,12R,12aR)-3,6,9-Trimethyldecahydro-12H-3,12-epoxypyrano[4,3-j][1,2]benzodioxepin-10-yl]methanesulfonamide], the KLS-positive rate runs as follows: (compound 0.1 μM) 13.2%; (compound 0.3 μM) 17.6%; (compound 1 μM) 26.0%; (compound 3 μM) 32.4%; (compound 10 μM) 100.0%. Also, the Viable cell count by setting is: (compound 0.1 μM) 452.5 cell; (compound 0.3 μM) 267.0 cell; (compound 1 μM) 196.0 cell; (compound 3 μM) 31.0 cell; (compound 10 μM) 1.5 cell. This molecule displayed a mCherry-positive rate (compound 0.1 μM) of 14.3%; a mCherry-positive rate (compound 0.3 μM) of 29.2%; a mCherry-positive rate (compound 1 μM) of 60.4%; a mCherry-positive rate (compound 3 μM) of 86.2%; a mCherry-positive rate (compound 10 μM) of 100.0%.
For `C[C@H]1[C@H](N(C)C)O[C@@H]2O[C@@]3(C)CC[C@H]4[C@H](C)CC[C@@H]1[C@@]24OO3` [Example 1-12, (3R,5aS,6R,8aS,9R,10R,12R,12aR)—N,N,3,6,9-Pentamethyldecahydro-12H-3,12-epoxypyrano[4,3-j][1,2]benzodioxepin-10-amine], the KLS-positive rate (compound 0.1 μM) was 27.2%; the KLS-positive rate (compound 0.3 μM) is recorded as 15.8%; the KLS-positive rate (compound 1 μM) was 19.3%; the KLS-positive rate (compound 3 μM) is given as 14.4%; the KLS-positive rate (compound 10 μM) turned out to be 36.6%. The molecule further displayed a Viable cell count (compound 0.1 μM) of 450.5 cell; a Viable cell count (compound 0.3 μM) of 262.0 cell; a Viable cell count (compound 1 μM) of 431.5 cell; a Viable cell count (compound 3 μM) of 217.0 cell; a Viable cell count (compound 10 μM) of 234.5 cell. The mCherry-positive rate (compound 0.1 μM) was found to be 7.3%; the mCherry-positive rate (compound 0.3 μM) worked out at 15.2%; the mCherry-positive rate (compound 1 μM) was 8.2%; the mCherry-positive rate (compound 3 μM) is given as 19.4%; the mCherry-positive rate (compound 10 μM) was 12.1%.
For the molecule `C[C@H]1[C@H](N2CCOCC2)O[C@@H]2O[C@@]3(C)CC[C@H]4[C@H](C)CC[C@@H]1[C@@]24OO3` [Example 1-13, 4-[(3R,5aS,6R,8aS,9R,10R,12R,12aR)-3,6,9-Trimethyldecahydro-12H-3,12-epoxypyrano[4,3-j][1,2]benzodioxepin-10-yl]morpholine], the KLS-positive rate worked out at 22.1% (compound 0.1 μM); 14.7% (compound 0.3 μM); 21.0% (compound 1 μM); 0.0% (compound 3 μM); 0.0% (compound 10 μM). Further, the Viable cell count is reported as 201.0 cell (compound 0.1 μM); 605.0 cell (compound 0.3 μM); 136.5 cell (compound 1 μM); 0.0 cell (compound 3 μM); 0.0 cell (compound 10 μM). Moreover, the mCherry-positive rate was 24.3% (compound 0.1 μM); 2.9% (compound 0.3 μM); 6.7% (compound 1 μM); 0.0% (compound 3 μM); 0.0% (compound 10 μM).
`CC(=O)O[C@@H]1O[C@@H]2O[C@@]3(C)CC[C@H]4[C@H](C)CC[C@@H]([C@H]1C)[C@@]24OO3` [Example 1-14, (3R,5aS,6R,8aS,9R,10S,12R,12aR)-3,6,9-Trimethyldecahydro-12H-3,12-epoxypyrano[4,3-j][1,2]benzodioxepin-10-yl acetate]: the KLS-positive rate worked out at 20.6% (compound 0.1 μM); 30.1% (compound 0.3 μM); 47.3% (compound 1 μM); 50.0% (compound 3 μM); 0.0% (compound 10 μM). Moreover, the Viable cell count runs as follows: (compound 0.1 μM) 497.5 cell; (compound 0.3 μM) 340.0 cell; (compound 1 μM) 119.0 cell; (compound 3 μM) 1.0 cell; (compound 10 μM) 0.5 cell. In addition, the mCherry-positive rate by setting is: (compound 0.1 μM) 0.2%; (compound 0.3 μM) 9.0%; (compound 1 μM) 22.1%; (compound 3 μM) 100.0%; (compound 10 μM) 0.0%.

These data come from patent US20230094952A1, “Method for Culturing Hematopoietic Stem Cells” (Sumitomo Pharma Co., Ltd., priority 2019, published 2023).
